Reference: patent US20110313153A1, “5-HT4 INHIBITORS FOR TREATING AIRWAY DISEASES, IN PARTICULAR ASTHMA” (priority 2009, published 2011)
Entries after “also recorded” stand apart in the source; their conditions may differ.

How the values were obtained:
[1] = test system: human airway epithelial cells, dendritic cells, monocytes; conditions: no effect of the antagonist per se described; cited from earlier work
[2] = test system: OVA-sensitized mice; assay: OVA-induced experimental asthma in mice: BAL cell infiltrate and MLN cytokines; assay type: in vivo, BALB/c mice
Method: (§1) BALB/c mice (n=6-8 per group) were sensitized to OVA by i.p. injection of OVA/alum (10 μg OVA grade V adsorbed to 1 mg aluminium hydroxide; Sigma-Aldrich) on days 0 and 7 and were subjected to OVA aerosol challenges (grade III) on days 17-19; aerosol challenges were dispensed from a jet nebulizer delivering 1% OVA in PBS for 30 minutes. Thirty minutes before each OVA exposure, mice were anesthetized using Avertin (Sigma-Aldrich) and received an i.t. injection of control vehicle, or of M0014 (0.1, 0.4 or 4 nM in PBS) in a volume of 80 μl. Twenty-four hours after the last OVA exposure, BAL was performed and LNs were resected and digested using collagenase/DNAse.
Flow cytometry and sorting. After counting and washing, BAL cells were stained for 30 minutes with FITC-labeled anti-I-Ad/I-Ed (macrophages/DCs), PE-labeled anti-CCR3 (eosinophils), Cy-chrome-labeled anti-CD3 and anti-CD19 (lymphocytes), and allophycocyanin-labeled (APClabeled) anti-CD11c (macrophages/DCs) in PBS containing 0.5% BSA and 0.01% sodium azide. Differential cell counts were analyzed by flow cytometry, as previously described (van Rijt et al., 2004).
Cytokine measurements. To measure cytokine levels, MLN cells were plated in round-bottomed 96-well plates (1×10^6 cells/ml) and restimulated with OVA (10 μg/ml) for 4 days. The presence of IL-4, IL-5, IL-13 and IFN-γ was assayed on supernatants by ELISA (BD).

[3] = test system: OVA-sensitized mice; assay: Bronchial hyperreactivity (BHR) to i.v. metacholine, dynamic resistance and compliance; assay type: in vivo, BALB/c mice; conditions: M0014 prior to each allergen challenge; measured 24 hours after the last OVA aerosol; FIG. 2
Method: as §1
For the measurement of dynamic resistance and compliance, mice were anesthetized with urethane, paralyzed using d-tubocurarine, tracheotomized, and intubated with an 18-gauge catheter, followed by mechanical ventilation with a Flexivent apparatus (SCIREQ). Respiratory frequency was set at 120 breaths per min with a tidal volume of 0.2 ml and a positive end-expiratory pressure of […]. Increasing concentrations of metacholine were administered via the jugular vein. Dynamic resistance and compliance was recorded after a standardized inhalation maneuver given every 10 seconds for 2 minutes. Baseline resistance was restored before administering the subsequent doses of metacholine.

[4] = test system: Balb/c mice; assay: Zymosan induced inflammatory cell recruitment to the lung; assay type: in vivo, Female Balb/c mice
Method: Female Balb/c mice (7-8 weeks; 20 g) were used in all studies. The animals were kept in standard animal holding facilities and have unlimited access to food and water. Animals were randomized to receive vehicle or 0.1-0.2 ml/20 g mouse, M0014 (0.001, 0.01, 0.1 and 1 mg/kg) via the oral route 30 min prior to, and 6 h after the administration of zymosan (i.n; 20 μL to each nostril, to give a total volume of administration of 40 μL). Animals received zymosan A to give a total dose of 4 mg/mouse.
5 mg of M0014 was dissolved in 5 mL of sterile water to give 1 mg/ml solution. The solutions were prepared freshly each time. The 1 mg/ml solution was diluted to a 0.1, 0.01, 0.001 and 0.0001 mg/ml solution. From these concentrations, 0.2 ml was administered orally to obtain 1, 0.1, 0.01 and 0.001 mg/kg respectively. Sterile water used as control vehicle.
Twenty-four hours after dosing, the mice were killed by overdose with an injectable anaesthetic and 0.5 ml of saline was injected into lung via a tracheal cannula and the fluid collected. This was repeated 3 times. Approximately 1 ml of lavage fluid was collected and stored on ice. Total cells and differential cells were counted and a reduction in neutrophil numbers was the primary end point.

[5] = test system: conscious dogs; assay: SSRI-induced loss of fundic compliance in conscious dogs; assay type: in vivo, dog; conditions: low doses, data not shown
From the text: (§2) Also the aroylated 4-aminomethylpiperidines 5-HT4 receptor antagonists (hereinafter also referred to as the compounds) of the present invention (e.g. compound M0014) were capable to suppress or inverse the 5-HT4 R-mediated prokinetic activity of serotonin or 5-HT4 R agonists in the GI tract (data not shown). For example, in conscious dogs, low doses of M0014 reversed the selective serotonin re-uptake inhibitor (SSRI)-induced loss of fundic compliance. […] As a final example, the compound reversed the 5-HT4 R agonist-induced stimulation of canine antral motility, measured with chronically implanted strain gauges.

[6] = test system: dog; assay: Dog model of delayed gastric emptying of a liquid meal; assay type: in vivo; conditions: data not shown
From the text: as §2

[7] = test system: dog; assay: Canine antral motility measured with chronically implanted strain gauges; assay type: in vivo; conditions: data not shown
From the text: as §2

[8] = test system: GI tract; assay: Effect of the antagonist by itself on the studied GI functions; assay type: in vivo, dog; conditions: without agonist
From the text: as §2
Similar to SB-207266, the 5-HT4 R antagonist M0014 had by itself no effect on the studied GI functions mentioned above.

[9] = test system: guinea-pigs; conditions: antigen induced, guinea pig model; cited from earlier work
[10] = test system: GI tract; conditions: Sanger et al., cited from earlier work
[11] = MLN cells restimulated with OVA for 4 days, ELISA, FIG. 1C and D
[12] = i.t. 80 μl, 0.1, 0.4 or 4 nM, 30 minutes prior to each allergen challenge, FIG. 1A

## COc1cc(COc2cc(N)c(Cl)cc2C(=O)CCC2CCN(CCNS(C)(=O)=O)CC2)cc(OC)c1 [RS 39604]
[1]
  effects of 5-HT: inhibit

## COCCCN1CC[C@@H](CNC(=O)c2cc(C)cc3c2OCCCO3)[C@H](O)C1 (relative stereo) [M0014, (3S-trans)-8-methyl-3,4-dihydro-3H-benzo[b][1,4]dioxepine-6-carboxylic acid [3-hydroxy-1-(3-methoxy-propyl)-piperidine-4-ylmethyl]-amide]
[2]; [11]
  IFN-γ production in the MLNs: weak increase
  levels of IL-4 in the MLNs: mildly but significantly reduced
  levels of IL-5 in the MLNs: mildly but significantly reduced
  levels of IL-13 in the MLNs: mildly but significantly reduced
[2]; [12]
  eosinophil infiltrate into the BAL compartment: significant dose-dependent reduction
  lymphocyte infiltrate into the BAL compartment: significant dose-dependent reduction
  macrophage infiltrate into the BAL compartment: significant dose-dependent reduction
[3]
  OVA-induced change in metacholine responsiveness: markedly attenuated
[4]; FIG. 3 legend, <0.05 cf zymosan alone
  neutrophil cell number: significant effect
[4]; oral, 0.01 and 0.1 mg/kg, 30 min prior to and 6 h after zymosan, P<0.05 Dunnett's test versus control, FIG. 3a
  total number of cells recruited to the airways: significant effect; also recorded: significantly reduced
[4]; oral, 0.01 and 0.1 mg/kg, P<0.01 Dunnett's test vs control, FIG. 3c
  decrease in the recruitment of neutrophils to the airways: 40-50%
[5]
  SSRI-induced loss of fundic compliance: reversed
[6]
  5-HT4 R agonist-induced acceleration of gastric emptying: potently inhibited
[7]
  5-HT4 R agonist-induced stimulation of canine antral motility: reversed
[8]
  effect by itself on the studied GI functions: no effect

## Cn1cc(C(=O)OCC2CCN(CCNS(C)(=O)=O)CC2)c2ccccc21 [GR113808]
[9]
  airway hyperresponsiveness: capable to normalize

## CCCCN1CCC(CNC(=O)c2c3n(c4ccccc24)CCCO3)CC1 [piboserod]
[10]; 2000, Bharucha et al.
  5-HT4 R-mediated effects of serotonin (5-HT) in the GI tract: antagonizes
[10]; animals or humans, 1998
  normal bowel motility: does not seem to affect
